Laboratory results taken from patent US9023865B2, “Compounds that are ERK inhibitors” (Merck Sharp & Dohme Corp., priority 2011, dated 2015).

Target: Active Human ERK2 (hERK2) (Homo sapiens (Human), UniProt P28482)
Assay: Active Human ERK2 (hERK2) Activity Assay (IMAP-FP)
Format: biochemical
Details: phosphorylated active hERK2, 30 μM ATP; average; read-out: ERK 2 Human average IC50
Procedure, shortened: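 Phosphorylation by activated human ERK2 (0.5 nM) at 30 μM ATP, peptide substrate 900 nM unlabeled with 80 nM labeled, proceeds 60 min. IMAP beads stop the reaction; after 60 min equilibration, product is measured by fluorescence polarization.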

Chain of Active Human ERK2 (hERK2) (P28482 whole entry): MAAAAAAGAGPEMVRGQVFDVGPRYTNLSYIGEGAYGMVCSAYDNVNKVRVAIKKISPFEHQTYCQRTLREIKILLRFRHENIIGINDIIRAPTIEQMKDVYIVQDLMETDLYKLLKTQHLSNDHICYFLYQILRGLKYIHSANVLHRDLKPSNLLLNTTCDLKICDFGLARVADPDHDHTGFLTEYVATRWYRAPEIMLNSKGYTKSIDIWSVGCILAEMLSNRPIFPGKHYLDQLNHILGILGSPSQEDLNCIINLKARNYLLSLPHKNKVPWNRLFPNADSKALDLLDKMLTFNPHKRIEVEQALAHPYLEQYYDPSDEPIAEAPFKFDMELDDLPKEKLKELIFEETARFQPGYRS

Row | IC50 [nM] | Compound
1 | 0.878 | Cc1cc(-c2n[nH]c3cc(NC(=O)N[C@H](C)c4ccccc4)ncc23)cnn1 [Example 91, 1-[3-(6-methylpyridazin-4-yl)-1H-pyrazolo[4,3-c]pyridin-6-yl]-3-[(1R)-1-phenylethyl]urea]
2 | 13.3 | Cc1cc(-c2n[nH]c3cc(NC(=O)N[C@H]4CCCC(F)(F)[C@@H]4O)ncc23)ccn1 [Example 383]
3 | 0.815 | Cc1cc(-c2n[nH]c3cc(NC(=O)NCc4ccccc4F)ncc23)ccn1 [Example 442]
4 | 0.562 | COC[C@@H](NC(=O)Nc1cc2[nH]nc(-c3ccc4c(c3)nnn4C)c2cn1)c1ccc(F)cc1 [Example 301]
5 | 0.709 | C[C@@H](NC(=O)Nc1cc2[nH]nc(-c3cnn(C)c3)c2cn1)c1ccc(F)c(Cl)c1 [Example 72, 1-[(1R)-1-(3-chloro-4-fluorophenyl)ethyl]-3-[3-(1-methyl-1H-pyrazol-4-yl)-1H-pyrazolo[4,3-c]pyridin-6-yl]urea]
6 | 211 | C[C@@H](NC(=O)Nc1cc2[nH]nc(C(=O)NCC3(N(C)C)CCC3)c2cn1)c1ccccc1 [Example 119]
7 | 2.14 | Cc1cc(-c2n[nH]c3cc(NC(=O)NCc4nccs4)ncc23)ccn1 [Example 436]
8 | 25.9 | Cc1cc(-c2n[nH]c3cc(NC(=O)N[C@@H](CO)c4cccc5cc[nH]c45)ncc23)ccn1 [Example 363]
9 | 0.861 | Cc1cc(-c2n[nH]c3cc(NC(=O)N[C@H](C)c4ccc(C#N)cc4)ncc23)ccn1 [Example 234]
10 | 6.09 | COCCNC(=O)Nc1cc2[nH]nc(-c3ccccc3)c2cn1 [Example 627]
11 | 8.46 | Cc1cc(-c2n[nH]c3cc(NC(=O)NCC4CCCO4)ncc23)ccn1 (centres unmarked) [Example 458]
12 | 0.561 | Cc1cc(-c2n[nH]c3cc(NC(=O)NCC4CCCCC4)ncc23)ccn1 [Example 578]
13 | 4.11 | Cc1cc(-c2n[nH]c3cc(NC(=O)NCC(O)C4CCCCC4)ncc23)ccn1 (centres unmarked) [Example 389]
14 | 3.46 | C[C@@H](NC(=O)Nc1cc2[nH]nc(C3CCC3)c2cn1)c1ccc(F)cc1 [Example 144]
15 | 15.1 | Cc1cc(-c2n[nH]c3cc(NC(=O)N[C@H]4COC[C@@H]4O)ncc23)ccn1 [Example 188]
16 | 0.464 | C[C@@H](NC(=O)Nc1cc2[nH]nc(-c3cnn(C4COC4)c3)c2cn1)c1ccccc1 [Example 647]
17 | 0.232 | Cc1cc(-c2n[nH]c3cc(NC(=O)NC(CN)c4ccccc4)ncc23)ccn1 (centres unmarked) [Example 361]
18 | 11.1 | COc1cc(CNC(=O)Nc2cc3[nH]nc(-c4ccnc(C)c4)c3cn2)on1 [Example 472]
19 | 1.41 | Cc1cc(-c2n[nH]c3cc(NC(=O)NC(C)c4cscn4)ncc23)ccn1 (centres unmarked) [Example 496]
20 | 0.405 | C[C@@H](NC(=O)Nc1cc2[nH]nc(-c3ccc4nn(C)cc4c3)c2cn1)c1ccc(F)cc1 [Example 63, 1-[(1R)-1-(4-fluorophenyl)ethyl]-3-[3-(2-methyl-2H-indazol-5-yl)-1H-pyrazolo[4,3-c]pyridin-6-yl]urea]
21 | 6.52 | Cc1cc(-c2n[nH]c3cc(NC(=O)NCc4ccc(C(F)(F)F)cc4)ncc23)ccn1 [Example 54, 1-[3-(2-methylpyridin-4-yl)-1H-pyrazolo[4,3-c]pyridin-6-yl]-3-[4-(trifluoromethyl)-benzyl]urea]
22 | 11.6 | COCC(C)NC(=O)Nc1cc2[nH]nc(-c3ccnc(C)c3)c2cn1 (centres unmarked) [Example 202]

Row | IC50 [nM] | Compound
23 | 0.717 | COc1ncc(-c2n[nH]c3cc(NC(=O)N[C@H](C)c4ccccc4)ncc23)cn1 [Example 313]
24 | 1.93 | Cc1cc(-c2n[nH]c3cc(NC(=O)NCc4cccc(C)n4)ncc23)ccn1 [Example 315]
25 | 3.34 | C[C@@H](NC(=O)Nc1cc2[nH]nc(-c3ccnc(F)c3)c2cn1)C1CCCCC1 [Example 593]
26 | 20 | COC[C@H](NC(=O)Nc1cc2[nH]nc(-c3ccnc(C)c3)c2cn1)c1ccccn1 [Example 415]
27 | 0.934 | Cc1cc(-c2n[nH]c3cc(NC(=O)NCc4csc(C)n4)ncc23)ccn1 [Example 43, 1-[3-(2-methylpyridin-4-yl)-1H-pyrazolo[4,3-c]pyridin-6-yl]-3-[(2-methyl-1,3-thiazol-4-yl)methyl]urea]
28 | 122 | C[C@@H](NC(=O)Nc1cc2[nH]nc(C(C)(C)O)c2cn1)c1ccccc1 [Example 611]
29 | 1.03 | Cc1cc(-c2n[nH]c3cc(NC(=O)NC(CO)c4cccnc4)ncc23)ccn1 (centres unmarked) [Example 336]
30 | 0.297 | COC[C@@H](NC(=O)Nc1cc2[nH]nc(-c3ccc4nn(C)cc4c3)c2cn1)c1ccccc1 [Example 613]
31 | 0.586 | Cn1cc2cc(-c3n[nH]c4cc(NC(=O)NCc5ccc(F)c(Cl)c5)ncc34)ccc2n1 [Example 64, 1-(3-chloro-4-fluorobenzyl)-3-[3-(2-methyl-2H-indazol-5-yl)-1H-pyrazolo[4,3-c]pyridin-6-yl]urea]
32 | 0.679 | Cc1cc(-c2n[nH]c3cc(NC(=O)NCC(C)c4ccccc4)ncc23)ccn1 (centres unmarked) [Example 584]
33 | 8.28 | Cc1cc(-c2n[nH]c3cc(NC(=O)N[C@H]4CCCOc5ccccc54)ncc23)ccn1 [Example 284]
34 | 52.3 | Cc1cc(-c2n[nH]c3cc(NC(=O)NCC(=O)N(C)C)ncc23)ccn1 [Example 187]
35 | 1.28 | Cc1cc(-c2n[nH]c3c(F)c(NC(=O)N[C@H](CO)c4ccccc4)ncc23)ccn1 [Example 544]
36 | 2.1 | Cc1cc(-c2n[nH]c3cc(NC(=O)NCC4CC4)ncc23)ccn1 [Example 35, 1-(cyclopropylmethyl)-3-[3-(2-methylpyridin-4-yl)-1H-pyrazolo[4,3-c]pyridin-6-yl]urea]
37 | 9.27 | COc1ccc(C2(NC(=O)Nc3cc4[nH]nc(-c5ccnc(C)c5)c4cn3)CC2)cc1 [Example 359]
38 | 650 | COc1ccnc([C@H](C)NC(=O)Nc2cc3[nH]nc(-c4ccnc(C)c4)c3cn2)c1 [Example 230]
39 | 3.78 | C[C@@H](NC(=O)Nc1cc2[nH]nc(-c3ccc(F)cc3)c2cn1)C1CCCCC1 [Example 594]
40 | 2.74 | Cc1cc(-c2n[nH]c3cc(NC(=O)NCc4ccc5ccccc5c4)ncc23)ccn1 [Example 45, 1-[3-(2-methylpyridin-4-yl)-1H-pyrazolo[4,3-c]pyridin-6-yl]-3-(naphthalen-2-ylmethyl)urea]
41 | 0.428 | C/C=C/c1n[nH]c2cc(NC(=O)N[C@H](C)c3ccccc3)ncc12 [Example 67, 1-[(1R)-1-phenylethyl]-3-{3-[(1E)-prop-1-en-1-yl]-1H-pyrazolo[4,3-c]pyridin-6-yl}urea]
42 | 5.28 | CCNC(=O)c1n[nH]c2cc(NC(=O)N[C@H](C)c3ccccc3)ncc12 [Example 138]
43 | 24.1 | CC[C@H](CO)NC(=O)Nc1cc2[nH]nc(-c3ccnc(C)c3)c2cn1 [Example 204]
44 | 0.494 | Cc1cc(-c2n[nH]c3cc(NC(=O)NC4CCCOc5ccccc54)ncc23)ccn1 (centres unmarked) [Example 274]

Row | IC50 [nM] | Compound
45 | 23.8 | Cc1cc(-c2n[nH]c3cc(NC(=O)N[C@H](c4ccccc4)[C@@H]4CCCO4)ncc23)ccn1 [Example 552]
46 | 12.9 | O=C(NCc1ccc(F)cc1)Nc1cc2[nH]nc(C3CCC3)c2cn1 [Example 146]
47 | 0.778 | COC[C@@H](NC(=O)Nc1cc2[nH]nc(-c3ccc(F)cc3)c2cn1)c1ccccn1 [Example 500]
48 | 13.6 | COCCNC(=O)Nc1cc2[nH]nc(-c3ccc4cn(C)nc4c3)c2cn1 [Example 625]
49 | 22.6 | Cc1cc(-c2n[nH]c3cc(NC(=O)NCc4cn5c(C)cccc5n4)ncc23)ccn1 [Example 392]
50 | 6.53 | C[C@@H](NC(=O)Nc1cc2[nH]nc(C(=O)NCC(F)(F)CN3CCOCC3)c2cn1)c1ccccc1 [Example 125]
51 | 1.06 | COc1cccc(F)c1CN1CCC[C@@H](NC(=O)Nc2cc3[nH]nc(-c4ccnc(F)c4)c3cn2)C1 [Example 649]
52 | 32.6 | Cc1cc(-c2n[nH]c3cc(NC(=O)NC(C)(C)C)ncc23)ccn1 [Example 36, 1-tert-butyl-3-[3-(2-methylpyridin-4-yl)-1H-pyrazolo[4,3-c]pyridin-6-yl]urea]
53 | 18.8 | Cc1cc(-c2n[nH]c3cc(NC(=O)N[C@H]4CN(C)C[C@@H]4c4ccccc4)ncc23)ccn1 [Example 182]
54 | 5.15 | Cc1cc(-c2n[nH]c3cc(NC(=O)NC4CCCOc5ccccc54)ncc23)no1 (centres unmarked) [Example 689]
55 | 3.63 | CC(C)Oc1ccc(-c2n[nH]c3cc(NC(=O)N[C@H](C)c4ccccc4)ncc23)cn1 [Example 28, 1-{3-[6-(1-methylethoxy)pyridin-3-yl]-1H-pyrazolo[4,3-c]pyridin-6-yl}-3-[(1R)-1-phenylethyl]urea]
56 | 23.5 | COC[C@H](NC(=O)Nc1cc2[nH]nc(-c3ccc(F)cc3)c2cn1)c1ccccn1 [Example 486]
57 | 6.73 | Cc1cc(-c2n[nH]c3cc(NC(=O)N[C@H]4CN(C)C[C@@H]4C4CCCCC4)ncc23)ccn1 [Example 208]
58 | 1.31 | Cc1cc(-c2n[nH]c3cc(NC(=O)NCc4csc5ccccc45)ncc23)ccn1 [Example 502]
59 | 6.71 | CC(=O)OC1CCCC(NC(=O)Nc2cc3[nH]nc(-c4ccnc(C)c4)c3cn2)C1 (centres unmarked) [Example 381]
60 | 5.47 | C[C@@H](NC(=O)Nc1cc2[nH]nc(C(=O)NCc3nc4ccncc4[nH]3)c2cn1)c1ccccc1 [Example 117]
61 | 86.8 | Cc1nocc1-c1n[nH]c2cc(NC(=O)N[C@H](C)c3ccc(F)cc3)ncc12 [Example 243]
62 | 60.1 | COc1ccc(CNC(=O)Nc2cc3[nH]nc(C4CC4)c3cn2)cc1 [Example 155]
63 | 1.64 | Cc1cc(-c2n[nH]c3cc(NC(=O)N[C@@H]4CCCCc5ccccc54)ncc23)ccn1 [Example 265]
64 | 0.441 | Cc1cc(-c2n[nH]c3cc(NC(=O)N[C@H]4CN(C)[C@@H](C(F)F)[C@@H]4c4ccccc4)ncc23)ccn1 [Example 567]
65 | 56 | CC1CC(c2n[nH]c3cc(NC(=O)N[C@H](C)c4ccccc4)ncc23)=NO1 (some centres unmarked) [Example 687]

Same assay, conditions: read-out: AERK2 IC50 (Active human ERK2 Activity Assay)

Row | IC50 [nM] | Compound
66 | 0.2 to 1.7 | Cc1cc(-c2n[nH]c3cc(NC(=O)N[C@H](C)c4ccccc4)ncc23)cnn1 [Example 91, 1-[3-(6-methylpyridazin-4-yl)-1H-pyrazolo[4,3-c]pyridin-6-yl]-3-[(1R)-1-phenylethyl]urea]
67 | 0.2 to 1.7 | C[C@@H](NC(=O)Nc1cc2[nH]nc(-c3cnn(C)c3)c2cn1)c1ccc(F)c(Cl)c1 [Example 72, 1-[(1R)-1-(3-chloro-4-fluorophenyl)ethyl]-3-[3-(1-methyl-1H-pyrazol-4-yl)-1H-pyrazolo[4,3-c]pyridin-6-yl]urea]
68 | 0.2 to 1.7 | C[C@@H](NC(=O)Nc1cc2[nH]nc(-c3ccc4nn(C)cc4c3)c2cn1)c1ccc(F)cc1 [Example 63, 1-[(1R)-1-(4-fluorophenyl)ethyl]-3-[3-(2-methyl-2H-indazol-5-yl)-1H-pyrazolo[4,3-c]pyridin-6-yl]urea]
69 | 0.2 to 1.7 | Cc1cc(-c2n[nH]c3cc(NC(=O)NCc4csc(C)n4)ncc23)ccn1 [Example 43, 1-[3-(2-methylpyridin-4-yl)-1H-pyrazolo[4,3-c]pyridin-6-yl]-3-[(2-methyl-1,3-thiazol-4-yl)methyl]urea]
70 | 0.2 to 1.7 | Cn1cc2cc(-c3n[nH]c4cc(NC(=O)NCc5ccc(F)c(Cl)c5)ncc34)ccc2n1 [Example 64, 1-(3-chloro-4-fluorobenzyl)-3-[3-(2-methyl-2H-indazol-5-yl)-1H-pyrazolo[4,3-c]pyridin-6-yl]urea]
71 | 0.2 to 1.7 | C/C=C/c1n[nH]c2cc(NC(=O)N[C@H](C)c3ccccc3)ncc12 [Example 67, 1-[(1R)-1-phenylethyl]-3-{3-[(1E)-prop-1-en-1-yl]-1H-pyrazolo[4,3-c]pyridin-6-yl}urea]
